Assay results as given in patent US20120202840A1, “Use of Flubendazole and Vinca Alkaloids for Treatment of Hematological Diseases” (priority 2009, published 2012).
Entries after “also recorded” stand apart in the source; their conditions may differ. Read-outs that look alike come from different tables or passages of the source.

Legend:
[1] = rats, up to 150 mg/kg/day for 3 months; cited from earlier work
[2] = chickens, up to 180 mg/kg daily for 7 days; cited from earlier work
[3] = healthy volunteers, 1000 mg single oral dose, three days after administration; cited from earlier work
[4] = system: PPC-1 cells; assay: Microtubules in cultured cells (confocal microscopy); type: cell-based; settings: PPC-1, 1.0 μM, 24 hours
Experimental: (D) PPC-1 cells were treated with 1.0 μM flubendazole (i) or control (ii) for 24 h and stained with DAPI and an anti α-tubulin AlexaFluor 488 nm antibody. Images were captured using an Olympus Fluorview confocal microscope at room temperature. Representative confocal micrographs at 40× are shown.
PPC-1 cells (5.0×10^3) were seeded on glass cover slips in a 6 well plate overnight at 37° C. and then treated with 1.0 μM flubendazole or vehicle control for 24 h. Cells were then fixed in 3.7% paraformeldehyde for 15 min at 37° C., permeabilized using 0.1% triton X-100 for 4 min at room temperature, and incubated at 4° C. overnight in a humidified chamber with a blocking solution (0.5% BSA). Cells were then incubated with a primary mouse anti α-tubulin antibody (clone DMIA, 1:300, in 0.5% BSA; Sigma) for 1 hour at 37° C., washed 3 times in PBS and subsequently incubated with a goat anti-mouse IgG, AlexaFluor 488 secondary antibody (1:500, Sigma) for 1 hour in the dark at room temperature. Cells were then washed, stained with 4′,6-diamidino-2-phenylindole (DAPI) and mounted on a microscope slide using Dakocytomation fluorescent mounting media (Dakocytamation, Carpinteria, Calif.). Slides were imaged using the Olympus Fluoview FV1000 Laser Scanning Confocal Microscope (Olympus America Inc., Center Valley, Pa.) at room temperature at 40×.

[5] = system: KB-3-1; assay: MTS assay, KB-3-1 wild type; type: cell-based; settings: Homo sapiens; KB-3-1, MTS assay, 3 replicates
Experimental: (§1) Next, whether microtubule inhibition was functionally important for flubendazole's cytotoxicity was determined.
(§2) Leukemia (U937, MDAY, CEM, CEM-VBL) and solid tumor cell lines (PPC-1, HeLa) were cultured in RPMI 1640 medium. The epidermoid carcinoma cell lines KB-3-1 and KB-4.0-HTI^23 were grown in Dulbecco's Modified Eagle Medium. The lung carcinoma cell lines A549 and A549.EpoB40 were grown in RPMI with the latter supplemented with 20% fetal calf serum (FCS), and 40 nM epothilone B.^24 Leukemia cell lines OCI-AML2, CEM, and NB4 and all the myeloma cell lines (OPM2, KMS11, JJN3 LP1, H929, L1, KMS12, KSM18 and OCI My5) were maintained in Iscove's Modified Dulbecco's Medium (IMDM). TEX cells were maintained in IMDM, 15% FCS, 1% penicillin-streptomycin, 2 mM L-glutamine, 20 ng/mL SCF, 2 ng/mL IL-3. Unless otherwise noted, all media were supplemented with 10% FCS, 100 units/mL of streptomycin and 100 μg/mL of penicillin (all from Hyclone, Logan, Utah). Cells were incubated in a humidified air atmosphere containing 5% CO2 at 37° C.
(§3) Cell growth and viability was measured using the 3-(4,5-dimethylthiazol-2-yl)-5-(3-carboxymethoxyphenyl)-2-(4-sulfophenyl)-2H-tetrazolium inner salt (MTS) reduction assay (Promega, Madison, Wis.) according to the manufacture's protocol and as previously described^25. […] Optical density (OD) was measured at 490 nm.

[6] = system: bovine tubulin; assay: Tubulin polymerization assay; type: biochemical; settings: cell-free, bovine tubulin 1.8 mg/ml; flubendazole 100 μM
Experimental: A representative figure is shown.
Polymerization of bovine tubulin was measured according to Beyer et al^28. Briefly, bovine tubulin (1.8 mg/ml; Cytoskeleton; Denver, USA) was added to ice cold polymerization buffer (PEM; 80 mM PIPES, 0.5 mM EGTA, 2 mM MgCl2, 10% glycerol and 1 mM GTP) and centrifuged at top speed in a microcentrifuge for 5 min at 4° C. […] Following addition of tubulin, the plate was immediately placed in the spectrophotometer, which was maintained at 37° C., and the absorbance measured every 3 minutes for 2.5 h at 340 nm.

[7] = system: OCI-AML2 cells; assay: MTS cell growth and viability assay, OCI-AML2; type: cell-based; settings: OCI-AML2, 72 h, MTS assay
Experimental: (A) OCI-AML2 cells were treated for 72 h with increasing concentrations of benzimidazoles. After incubation, cell growth and viability was measured by the MTS assay. Data represent the mean percentage of viable cells ±SD from a representative experiment.
Cell growth and viability was measured using the 3-(4,5-dimethylthiazol-2-yl)-5-(3-carboxymethoxyphenyl)-2-(4-sulfophenyl)-2H-tetrazolium inner salt (MTS) reduction assay (Promega, Madison, Wis.) according to the manufacture's protocol and as previously described^25. Cells were seeded in 96 well plates and treated with drug for 72 h. Optical density (OD) was measured at 490 nm.

[8] = cited from earlier work
[9] = system: A549.EpoB40; assay: MTS assay, A549.EpoB40 (β-tubulin mutant); type: cell-based
Experimental: as §1, §2, §3

[10] = in vitro; type: cell-based; settings: human
Experimental: (§4) (E) HeLa cells were grown to confluence and a wound created on the cell monolayer using a 200 μL pipette. Cells were treated with increasing concentrations of flubendazole and imaged every 2 h for 8 h. Wound healing was measured as described in the materials and methods. Representative data is shown and are presented as % wound recovery. *p<0.05 (ANOVA, bonferroni post hoc).
(§5) HeLa cell migration was measured as previously described^30. Briefly, HeLa cells were seeded in 4 well chambers and grown to confluence. A wound was inflicted to the monolayer using a 200 μL pipette tip. Wells were washed with media to remove any detached cells and media containing either 0 μM, 0.5 μM or 1.0 μM flubendazole was then added and incubated at 37° C. for 8 hours. Images were captured using a Zeiss Axiovert 200M microscope every 2 hours. These images were quantified using Image J software, which outlined and enumerated the number of pixels in the wound area. Cell migration of HeLa cells was recorded and calculated as a percent recovery of wound area.

[11] = system: HeLa cells; assay: in vitro; type: cell-based; settings: HeLa, 0.5 or 1.0 μM, 8 hours
Experimental: as §4, §5

COC(=O)Nc1nc2ccc(C(=O)c3ccc(F)cc3)cc2[nH]1 [flubendazole]
toxicity [1]: No toxicity was noted
toxicity [2]: developed anemia and reduction of red cells in the spleen
unchanged drug detected in the feces [3]: 77%
unchanged drug detected in the urine [3]: less than 0.1%
microtubule architecture in intact cells [4]: disrupts the microtubule architecture
IC50 [5]: 1.9 ± 1.1 µM
effect on tubulin polymerization / microtubule formation [6]: inhibited tubulin polymerization
rank of potency in panel of 8 benzimidazoles [7]: most potent
toxicity ([8]; healthy volunteers, single oral doses up to 2000 mg): without toxicity
toxicity ([8]; humans, 40-50 mg/kg/day for 10 days, neurocysticercosis): no toxicity from the drug was reported
adverse effects ([8]; patients, up to 50 mg/kg orally daily for up to 24 months): without serious adverse effects; also recorded: without adverse effect
IC50 ([9]; A549.EpoB40, MTS assay, 3 replicates): 0.8 ± 0.2 µM
IC50 lower in A549.EpoB40 than in A549 control cells ([9]; ratio of IC50 values of Table 1): 5 fold
viability at 8 h [10]: > 89%
cell migration / wound healing [11]: impaired cell migration and delayed wound healing
